Earlier results on three molecules are cited in patent US20140004186A1, “COMPOSITIONS COMPRISING A FATTY ACID OIL MIXTURE COMPRISING EPA AND DHA IN FREE ACID FORM, A SURFACTANT, AND A STATIN” (Pronova Biopharma Norge AS, priority 2010, published 2014).

The structures appear in SMILES notation.

The conditions of data set [1]: Table 7, other surfactants.

As to `CC(O)CO.CCCCCCCCCCCCCCCCCC(=O)O` [Propylene glycol monostearate], in data set [1], the “HBL Value” is 3.4.
On to `CC(C)c1nc(N(C)S(C)(=O)=O)nc(-c2ccc(F)cc2)c1/C=C/[C@@H](O)C[C@@H](O)CC(=O)O` [rosuvastatin], for which the oral bioavailability is 20%.
With `CC[C@H](C)C(=O)O[C@H]1C[C@H](O)C=C2C=C[C@H](C)[C@H](CC[C@@H](O)C[C@@H](O)CC(=O)O)[C@H]21` [pravastatin], the oral bioavailability is recorded as 18%.
